“And” between values parts separate entries of the source, which are not always exact repeats. Identical values can stand only once. Like-named read-outs stand apart in the source and are kept apart here. Numbered stars: 1 amine (or outer) side, 2 acyl side, 3 side chain; on linkers, the order of the positions; unused ones are H or OH. Square brackets hold non-standard residues; d marks the D form. Side chains are listed from the residue outwards. Peptide text beside a SMILES is read from it. * marks the point of attachment. C18 diacid = O=C(O)CCCCCCCCCCCCCCCCC(=O)*; γGlu = O=C(O)[C@H](CCC(=O)[*:2])N[*:1]; Aib = CC(C)(N)C(=O)O
Experiments:
[1] = Plasma half-life in single ascending dose Phase 1a trial (LC-MS/MS); format: in vivo; conditions: human
Protocol: Blood sampling for determining Cpd 18 plasma concentrations were performed during the phase la study (outlined in Example 2) at scheduled timepoints. Concentration of Cpd 18 in plasma was measured using a validated LC-MS/MS assay. Pharmacokinetic (PK) endpoints for Cpd 18 were derived from the individual concentration profiles (with hour as time unit). For PK analysis, Cpd 18 concentrations were supplied by the analytical laboratory in nmol/L. Mean measured concentrations per dose level are shown in […].
For determination of λz a linear regression was performed using the logarithm to plasma Cpd. 18 concentration as the response variable and at least three valid concentration measurements of the terminal end period after Cmax. (The exact number of data points depends on the best goodness-of-fit). Cmax is not included in the calculation for λz as this point may be affected by absorption still taking place from the injection site.
The terminal elimination half-life of the plasma Cpd. 18 profile (t½) was calculated by the following formula: […]

healthy human subjects [2] = assay: Multiple ascending dose Phase 1b trial, adverse events; format: in vivo; conditions: 7 subjects
Protocol: A multiple ascending dose Phase 1b trial was conducted for Cpd. 18 investigating the safety of multiple subcutaneous injections of various ascending doses in healthy human subjects. The trial was a Randomized, Double-blind, Placebo-controlled, Multi Ascending Dose Trial assessing Safety, Tolerability, Pharmacokinetics and Pharmacodynamics of Multiple Subcutaneous Dose of Cpd. 18 in Healthy human Subjects.
Four cohorts were dosed with four once weekly subcutaneous administrations. In each cohort, consisting of 10 subjects each, subjects were randomized to either placebo (n=3) or to the following active multiple ascending dose levels (n=7): 4 weekly dose injections of 1.0 mg; 4 weekly dose injections of 2.25 mg; 4 weekly dose injections of 3.5 mg and 1 weekly dose injections of 3.5 mg followed by 3 weekly dose injections of 6.0 mg.
Adverse events (AE) were captured by asking open ended and non-leading questions according to the following wording in the protocol:
• All events meeting the definition of an AE must be collected and reported from the first trial-related activity after the subject has signed the informed consent and until the end of the post-treatment follow-up period. At each contact with the site (Visit or telephone) the subject must be asked about AEs. All AEs, either observed by the Investigator or reported by the subject, must be recorded by the Investigator and evaluated. • The Investigator should record the diagnosis, if possible. If no diagnosis can be made the Investigator should record each sign and symptom as individual AEs. • All AEs must be recorded by the Investigator. One single Adverse Event Form must be used per AE from start to resolution. For Serious Adverse Events (SAE), the Serious Adverse Event Form must also be completed.”
The safety data (incidence/number of subjects) for subjects dosed 4×1.0 mg to 1×3.5 mg plus 3×6.0 mg as well as placebo is shown in Table 10 below.

healthy human subjects [3] = assay: Mixed meal test (breakfast), Phase 1b trial; format: in vivo
Protocol: (§1) Reduction in appetite is reflected in the reduction in food intake measured by mixed meal test for breakfast (Table 11) and by measuring caloric intake at standard meals for lunch and dinner (Table 12).
The Mixed Meal Test (MMT) was performed at baseline, at 24 hours, after the first dosing (Day 2) and after the fourth dosing (Day 23). The meal consisted of a fixed nutrient content and the exact initial amount of nutrients were weighed by kitchen staff on a lab scale using the method of weighed intake. Consumption was supervised and leftovers were weighed and recorded as percentage of meal. Adjustment of leftovers on Day 2 will be performed for Day 23 and differences in weight will be calculated in carbohydrates.

healthy human subjects [4] = assay: Standard meal test (lunch and dinner), Phase 1b trial; format: in vivo
Source text: as §1
Pre-defined lunch and dinner meals were served at baseline (on Day -1) and after 4th dose (Day 23). Consumption was supervised and leftovers were weighed.

[5] = Body weight in Phase 1b trial; format: in vivo, human; conditions: four once weekly s.c. doses, 1.0 mg to 3.5/6.0 mg, healthy subjects, FIG. 3
[6] = 1 × 3.5 mg plus 3 × 6.0 mg weekly s.c.

Question: Which half-life ([1]; sc, single s.c. dose 0.02 mg, healthy subjects, N 6, read-out: t1/2 Mean (converted)) does the source give for `CC[C@H](C)[C@H](NC(=O)[C@H](Cc1ccccc1)NC(=O)[C@H](CC(=O)O)NC(=O)[C@H](CCCNC(=N)N)NC(=O)[C@H](C)NC(=O)[C@H](C)NC(=O)[C@H](CCC(N)=O)NC(=O)[C@H](CCCCNC(=O)CC[C@H](NC(=O)CCCCCCCCCCCCCCCCC(=O)O)C(=O)O)NC(=O)[C@H](CC(=O)O)NC(=O)[C@H](CC(C)C)NC(=O)[C@@H](NC(=O)[C@@H](NC(=O)[C@H](C)NC(=O)[C@H](CC(C)C)NC(=O)[C@H](CCC(=O)O)NC(=O)[C@H](CO)NC(=O)[C@@H](NC(=O)[C@H](Cc1ccccc1)NC(=O)[C@H](CO)NC(=O)CNC(=O)[C@H](CCC(=O)O)NC(=O)C(C)(C)NC(=O)[C@@H](N)Cc1c[nH]cn1)[C@@H](C)O)[C@@H](C)O)[C@@H](C)CC)C(=O)N[C@@H](C)C(=O)N[C@@H](Cc1c[nH]c2ccccc12)C(=O)N[C@@H](CC(C)C)C(=O)N[C@H](C(=O)N[C@@H](CCC(N)=O)C(=O)N[C@@H](Cc1c[nH]cn1)C(=O)N[C@@H](CCCCN)C(=O)N[C@H](C(=O)N[C@H](C(=O)N[C@@H](CC(=O)O)C(=O)O)[C@@H](C)O)[C@@H](C)CC)[C@@H](C)CC` [Compound 18] (H-H[Aib]EGSFTSELATILDK([γGlu-C18 diacid])QAARDFIAWLIQHKITD-OH) here?
Answer: 140 h

Question: And the half-life ([1]; sc, single s.c. dose 0.07 mg, healthy subjects, N 6, read-out: t1/2 Mean (converted))?
Answer: 126 h

Question: What about the half-life ([1]; sc, single s.c. dose 0.2 mg, healthy subjects, N 6, read-out: t1/2 Mean (converted)) of the same molecule?
Answer: 129 h

Question: What about the half-life ([1]; sc, single s.c. dose 0.6 mg, healthy subjects, N 6, read-out: t1/2 Mean (converted)) of the same molecule?
Answer: 110 h

Question: And the half-life ([1]; sc, single s.c. dose 1.5 mg, healthy subjects, N 6, read-out: t1/2 Mean (converted))?
Answer: 120 h

Question: And the half-life ([1]; sc, single s.c. dose 3 mg, healthy subjects, N 6, read-out: t1/2 Mean (converted))?
Answer: 120 h

Question: And the half-life ([1]; sc, single s.c. dose 6 mg, healthy subjects, N 6, read-out: t1/2 Mean (converted))?
Answer: 112 h

Question: And the half-life ([1]; sc, single s.c. dose 7.5 mg, healthy subjects, N 6, read-out: t1/2 Mean (converted))?
Answer: 135 h

Question: What about the half-life ([1]; subcutaneous, following a single dose, across dose groups, read-out: calculated mean half-life) of the same molecule?
Answer: 110 to 135 h

Question: What about the “Subjects experiencing decreased appetite” value (healthy human subjects [2]; [6]) of the same molecule?
Answer: 6/7 and 6

Question: What about the Subjects experiencing nausea (healthy human subjects [2]; [6]) of the same molecule?
Answer: 4

Question: What about the Subjects experiencing vomiting (healthy human subjects [2]; [6]) of the same molecule?
Answer: 3

Question: What about the “Subjects experiencing decreased appetite” value (healthy human subjects [2]; 4 weekly s.c. doses of 1.0 mg) of the same molecule?
Answer: 0

Question: And the Subjects experiencing nausea (healthy human subjects [2]; 4 weekly s.c. doses of 1.0 mg)?
Answer: 1

Question: And the Subjects experiencing vomiting (healthy human subjects [2]; 4 weekly s.c. doses of 1.0 mg)?
Answer: 0

Question: What about the “Subjects experiencing decreased appetite” value (healthy human subjects [2]; 4 weekly s.c. doses of 2.25 mg) of the same molecule?
Answer: 3/7 and 3

Question: And the Subjects experiencing nausea (healthy human subjects [2]; 4 weekly s.c. doses of 2.25 mg)?
Answer: 1

Question: What about the Subjects experiencing vomiting (healthy human subjects [2]; 4 weekly s.c. doses of 2.25 mg) of the same molecule?
Answer: 0

Question: What about the “Subjects experiencing decreased appetite” value (healthy human subjects [2]; 4 weekly s.c. doses of 3.5 mg) of the same molecule?
Answer: 2/7 and 2

Question: And the Subjects experiencing nausea (healthy human subjects [2]; 4 weekly s.c. doses of 3.5 mg)?
Answer: 0

Question: What about the Subjects experiencing vomiting (healthy human subjects [2]; 4 weekly s.c. doses of 3.5 mg) of the same molecule?
Answer: 0

Question: And the Mean food consumption (healthy human subjects [3]; After 1st dose (Day 2), cohort 1.0 mg)?
Answer: 99.0%

Question: What about the Mean food consumption (healthy human subjects [3]; After 1st dose (Day 2), cohort 2.25 mg) of the same molecule?
Answer: 95.4%

Question: And the Mean food consumption (healthy human subjects [3]; After 1st dose (Day 2), cohort 3.5 mg)?
Answer: 99.2% and 96.2%

Question: And the Mean food consumption (healthy human subjects [3]; After 1st dose (Day 2), cohort 3.5/6.0 mg)?
Answer: 87.5%

Question: And the Mean food consumption (healthy human subjects [3]; After 4th dose (Day 23), cohort 1.0 mg weekly)?
Answer: 98.6%

Question: What about the Mean food consumption (healthy human subjects [3]; After 4th dose (Day 23), cohort 2.25 mg weekly) of the same molecule?
Answer: 95.8%

Question: What about the Mean food consumption (healthy human subjects [3]; After 4th dose (Day 23), cohort 3.5 mg weekly) of the same molecule?
Answer: 93.2%

Question: What about the Mean food consumption (healthy human subjects [3]; After 4th dose (Day 23), cohort 3.5/6.0 mg weekly) of the same molecule?
Answer: 62.5%

Question: What about the Mean food consumption (healthy human subjects [3]; Baseline, cohort 1.0 mg) of the same molecule?
Answer: 99.2%

Question: And the Mean food consumption (healthy human subjects [3]; Baseline, cohort 2.25 mg)?
Answer: 100%

Question: And the Mean food consumption (healthy human subjects [3]; Baseline, cohort 3.5 mg)?
Answer: 100%

Question: What about the Mean food consumption (healthy human subjects [3]; Baseline, cohort 3.5/6.0 mg) of the same molecule?
Answer: 95.8%

Question: And the Mean food consumption (healthy human subjects [4]; Dinner, After 4th dose (Day 23), cohort 1.0 mg weekly)?
Answer: 682 kcal

Question: And the Mean food consumption (healthy human subjects [4]; Dinner, After 4th dose (Day 23), cohort 2.25 mg weekly)?
Answer: 585 kcal

Question: What about the Mean food consumption (healthy human subjects [4]; Dinner, After 4th dose (Day 23), cohort 3.5 mg weekly) of the same molecule?
Answer: 594 kcal

Question: And the Mean food consumption (healthy human subjects [4]; Dinner, After 4th dose (Day 23), cohort 3.5/6.0 mg weekly)?
Answer: 423 kcal

Question: What about the Mean food consumption (healthy human subjects [4]; Dinner, Baseline (Day -1), cohort 1.0 mg) of the same molecule?
Answer: 694 kcal

Question: And the Mean food consumption (healthy human subjects [4]; Dinner, Baseline (Day -1), cohort 2.25 mg)?
Answer: 679 kcal

Question: What about the Mean food consumption (healthy human subjects [4]; Dinner, Baseline (Day -1), cohort 3.5 mg) of the same molecule?
Answer: 695 kcal

Question: What about the Mean food consumption (healthy human subjects [4]; Dinner, Baseline (Day -1), cohort 3.5/6.0 mg) of the same molecule?
Answer: 694 kcal

Question: And the Mean food consumption (healthy human subjects [4]; Lunch, After 4th dose (Day 23), cohort 1.0 mg weekly)?
Answer: 705 kcal

Question: What about the Mean food consumption (healthy human subjects [4]; Lunch, After 4th dose (Day 23), cohort 2.25 mg weekly) of the same molecule?
Answer: 649 kcal

Question: And the Mean food consumption (healthy human subjects [4]; Lunch, After 4th dose (Day 23), cohort 3.5 mg weekly)?
Answer: 647 kcal

Question: And the Mean food consumption (healthy human subjects [4]; Lunch, After 4th dose (Day 23), cohort 3.5/6.0 mg weekly)?
Answer: 403 kcal

Question: What about the Mean food consumption (healthy human subjects [4]; Lunch, Baseline (Day -1), cohort 1.0 mg) of the same molecule?
Answer: 701 kcal

Question: What about the Mean food consumption (healthy human subjects [4]; Lunch, Baseline (Day -1), cohort 2.25 mg) of the same molecule?
Answer: 638 kcal

Question: And the Mean food consumption (healthy human subjects [4]; Lunch, Baseline (Day -1), cohort 3.5 mg)?
Answer: 706 kcal

Question: What about the Mean food consumption (healthy human subjects [4]; Lunch, Baseline (Day -1), cohort 3.5/6.0 mg) of the same molecule?
Answer: 671 kcal

Question: And the Body weight [5]?
Answer: dose dependent reduction in body weight
